Data published in ChEMBL document CHEMBL5236600, “Identification of a Novel Potent CYP4Z1 Inhibitor Attenuating the Stemness of Breast Cancer Cells through Lead Optimization” (J Med Chem, 2022).

How the values were obtained:
Assay type in all cases: ADME, cell-based
Cytochrome P450 4Z1 [1] = target: T1, Cytochrome P450 4Z1 (Homo sapiens, UniProt Q86W10); test: Inhibition of CYP4Z1 in human HEK293T cells using Luciferin-BE as substrate at 10 uM incubated for 30 mins in presence of NADPH by luminescence based assay relative to control; details: HEK-293T, 0.5 h
T1 sequence (Q86W10 whole entry): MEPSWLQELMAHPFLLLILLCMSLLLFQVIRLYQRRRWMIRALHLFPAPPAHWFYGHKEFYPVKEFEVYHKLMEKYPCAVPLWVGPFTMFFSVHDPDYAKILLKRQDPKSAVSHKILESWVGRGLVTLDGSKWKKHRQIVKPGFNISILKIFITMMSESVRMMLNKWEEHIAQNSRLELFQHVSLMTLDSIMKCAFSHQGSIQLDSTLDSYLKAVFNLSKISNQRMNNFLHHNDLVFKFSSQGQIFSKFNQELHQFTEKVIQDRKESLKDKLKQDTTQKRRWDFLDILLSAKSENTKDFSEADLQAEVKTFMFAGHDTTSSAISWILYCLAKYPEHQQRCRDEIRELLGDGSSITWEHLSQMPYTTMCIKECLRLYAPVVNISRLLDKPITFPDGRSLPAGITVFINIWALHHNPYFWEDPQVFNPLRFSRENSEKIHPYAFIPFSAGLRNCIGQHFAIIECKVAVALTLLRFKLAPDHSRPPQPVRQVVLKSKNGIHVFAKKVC

Cytochrome P450 4Z1 [2] = target: T1, Cytochrome P450 4Z1; test: Inhibition of CYP4Z1 in human HEK293T cells using Luciferin-BE as substrate at 1 uM incubated for 30 mins in presence of NADPH by luminescence based assay relative to control; details: HEK-293T, 0.5 h
Cytochrome P450 4Z1 [3] = target: T1, Cytochrome P450 4Z1; test: Inhibition of CYP4Z1 in human HEK293T cells using Luciferin-BE as substrate incubated for 30 mins in presence of NADPH by luminescence based assay

An inhibition at 10 µM (Cytochrome P450 4Z1 [1]) of 89.1%, an inhibition at 1 µM (Cytochrome P450 4Z1 [2]) of 80.4% and an IC50 (Cytochrome P450 4Z1 [3]) of 89.7 nM were found for CCOC(=O)Cc1ccc(N/C=N/O)cc1 in this work.

An inhibition at 10 µM (Cytochrome P450 4Z1 [1]) of 72.8% and an inhibition at 1 µM (Cytochrome P450 4Z1 [2]) of 33.6% were found for CCc1ccc(N/C=N/O)cc1 in this work.
